# Source: patent US20200216439A1, “HETERO-1,5,6,7-TETRAHYDRO-4H-INDOL-4-ONES” (BAYER PHARMA AKTIENGESELLSCHAFT, priority 2015, published 2020)
# Biological target: T1, catalytic domain of human Bub1 (amino acids 704-1085) (Homo sapiens, UniProt O43683)
# T1 construct: catalytic domain of human Bub1 (amino acids 704-1085); His6 (N); made in house; host or cells: Hi5 insect cells
# Assay: Bub1 kinase assay (TR-FRET)
# Format: biochemical
# Conditions: TR-FRET; ATP 10 μM, peptide substrate 1 μM; 60 min at 22° C.; average or median if tested more than once; read-out: Inhibition of Bub1 kinase IC50
# Excerpt: Bub1-inhibitory activities of compounds described in the present invention were quantified using a time-resolved fluorescence energy transfer (TR-FRET) kinase assay which measures phosphorylation of the synthetic peptide Biotin-Ahx-VLLPKKSFAEPG (C-terminus in amide form), purchased from e.g. Biosyntan (Berlin, Germany) by the (recombinant) catalytic domain of human Bub1 (amino acids 704-1085), expressed in Hi5 insect cells with an N-terminal His6-tag and purified by affinity—(Ni-NTA) and size exclusion chromatography.
# In a typical assay 11 different concentrations of each compound (0.1 nM, 0.33 nM, 1.1 nM, 3.8 nM, 13 nM, 44 nM, 0.15 μM, 0.51 μM, 1.7 μM, 5.9 μM and 20 μM) were tested in duplicate within the same microtiter plate. To this end, 100-fold concentrated compound solutions (in DMSO) were previously prepared by serial dilution (1:3.4) of 2 mM stocks in a clear low volume 384-well source microtiter plate (Greiner Bio-One, Frickenhausen, Germany), from which 50 nl of compounds were transferred into a black low volume test microtiter plate from the same supplier. Subsequently, 2 μL of Bub1 (the final concentration of Bub1 was adjusted depending on the activity of the enzyme lot in order to be within the linear dynamic range of the assay: typically ˜200 ng/mL were used) in aqueous assay buffer [50 mM Tris/HCl pH 7.5, 10 mM magnesium chloride (MgCl2), 200 mM potassium chloride (KCl), 1.0 mM dithiothreitol (DTT), 0.1 mM sodium ortho-vanadate, 1% (v/v) glycerol, 0.01% (w/v) bovine serum albumine (BSA), 0.005% (v/v) Trition X-100 (Sigma), 1× Complete EDTA-free protease inhibitor mixture (Roche)] were added to the compounds in the test plate and the mixture was incubated for 15 min at 22° C. to allow pre-equilibration of the putative enzyme-inhibitor complexes before the start of the kinase reaction, which was initiated by the addition of 3 μL 1.67-fold concentrated solution (in assay buffer) of adenosine-tri-phosphate (ATP, 10 μM final concentration) and peptide substrate (1 μM final concentration). The resulting mixture (5 μL final volume) was incubated at 22° C. during 60 min., and the reaction was stopped by the addition of 5 μL of an aqueous EDTA-solution (50 mM EDTA, in 100 mM HEPES pH 7.5 and 0.2% (w/v) bovine serum albumin) which also contained the TR-FRET detection reagents (0.2 μM streptavidin-XL665 [Cisbio Bioassays, Codolet, France] and 1 nM anti-phospho-Serine antibody [Merck Millipore, cat. #35-002] and 0.4 nM LANCE EU-W1024 labeled anti-mouse IgG antibody [Perkin-Elmer, product no. AD0077, alternatively a Terbium-cryptate-labeled anti-mouse IgG antibody from Cisbio Bioassays can be used]). The stopped reaction mixture was further incubated 1 h at 22° C. in order to allow the formation of complexes between peptides and detection reagents. Subsequently, the amount of product was evaluated by measurement of the resonance energy transfer from the Eu-chelate-antibody complex recognizing the Phosphoserine residue to the streptavidin-XL665 bound to the biotin moiety of the peptide. To this end, the fluorescence emissions at 620 nm and 665 nm after excitation at 330-350 nm were measured in a TR-FRET plate reader, e.g. a Rubystar or Pherastar (both from BMG Labtechnologies, Offenburg, Germany) or a Viewlux (Perkin-Elmer) and the ratio of the emissions (665 nm/[…]) was taken as indicator for the amount of phosphorylated substrate. The data were normalised using two sets of control wells for high—(=enzyme reaction without inhibitor=0%=Minimum inhibition) and low—(=all assay components without enzyme=100%=Maximum inhibition) Bub1 activity. IC50 values were calculated by fitting the normalized inhibition data to a 4-parameter logistic equation (Minimum, Maximum, IC50, Hill; Y=Max+(Min−Max)/(1+(X/IC50)Hill)).
# T1 sequence (O43683 704-1085): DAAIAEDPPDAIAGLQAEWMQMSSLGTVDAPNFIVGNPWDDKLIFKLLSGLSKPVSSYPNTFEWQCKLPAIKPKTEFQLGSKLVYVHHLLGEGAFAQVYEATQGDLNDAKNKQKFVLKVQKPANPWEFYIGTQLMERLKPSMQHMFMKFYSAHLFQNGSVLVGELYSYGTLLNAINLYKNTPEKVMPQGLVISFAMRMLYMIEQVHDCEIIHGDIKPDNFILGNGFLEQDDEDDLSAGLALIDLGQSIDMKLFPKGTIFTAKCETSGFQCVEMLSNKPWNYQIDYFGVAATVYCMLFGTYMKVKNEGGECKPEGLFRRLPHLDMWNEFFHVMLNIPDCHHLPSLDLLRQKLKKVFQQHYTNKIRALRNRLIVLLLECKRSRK
row,SMILES,IC50
1,"C[S+]([O-])CCNC(=O)N1CC(=O)c2c([nH]c(-c3ccncc3)c2Nc2ccccc2)C1 (racemic) [Example 88, N-{2-[(RS)-Methylsulfinyl]ethyl}4-oxo-3-(phenylamino)-2-(pyridin-4-yl)-1,4,5,7-tetrahydro-6H-pyrrolo[2,3-c]pyridine-6-carboxamide]",21 nM
2,"CC(C)(C)OC(=O)N1CC(=O)c2c([nH]c(-c3ccnc(NC(=O)C4CC4(F)F)c3)c2Nc2ccccc2)C1 (racemic) [Example 121, tert-Butyl 2-[2-({[(1RS)-2,2-difluorocyclopropyl]carbonyl}amino)pyridin-4-yl]-4-oxo-3-(phenylamino)-1,4,5,7-tetrahydro-6H-pyrrolo[2,3-c]pyridine-6-carboxylate]",10 nM
3,"O=C1CNCc2[nH]c(-c3ccnc(NC(=O)C4CC4(F)F)c3)c(Nc3ccccc3)c21 (racemic) [Example 137, (1RS)—N-[4-(3-Anilino-4-oxo-4,5,6,7-tetrahydro-1H-pyrrolo[2,3-c]pyridin-2-yl)pyridin-2-yl]-2,2-difluorocyclopropanecarboxamide]",64 nM
4,"COC(=O)N1CC(=O)c2c([nH]c(-c3ccnc(NC(=O)C4CC4(F)F)c3)c2Nc2ccccc2)C1 (racemic) [Example 146, Methyl 3-anilino-2-[2-({[(1RS)-2,2-difluorocyclopropyl]carbonyl}amino)pyridin-4-yl]-4-oxo-1,4,5,7-tetrahydro-6H-pyrrolo[2,3-c]pyridine-6-carboxylate]",10 nM
5,"CC(C)(C)OC(=O)N1CC(=O)c2c([nH]c(-c3ccnc(NC(=O)[C@@H]4C[C@@H]4F)c3)c2Nc2ccccc2)C1 (relative stereo) [Example 120, tert-Butyl 2-[2-({[rel-(1S,2S)-2-fluorocyclopropyl]carbonyl}amino)pyridin-4-yl]-4-oxo-3-(phenylamino)-1,4,5,7-tetrahydro-6H-pyrrolo[2,3-c]pyridine-6-carboxylate]",9 nM
6,"CC(C)(C)OC(=O)N1CC(=O)c2c([nH]c(-c3ccnc(NC(=O)[C@@H]4C[C@H]4F)c3)c2Nc2ccccc2)C1 (relative stereo) [Example 129, tert-Butyl 3-anilino-2-[2-({[(rel-1S,2R)-2-fluorocyclopropyl]carbonyl}amino)pyridin-4-yl]-4-oxo-1,4,5,7-tetrahydro-6H-pyrrolo[2,3-c]pyridine-6-carboxylate]",7 nM
7,"O=C1CNCc2[nH]c(-c3ccnc(NC(=O)[C@@H]4C[C@@H]4F)c3)c(Nc3ccccc3)c21 (relative stereo) [Example 136, rel-(1S,2S)—N-[4-(3-Anilino-4-oxo-4,5,6,7-tetrahydro-1H-pyrrolo[2,3-c]pyridin-2-yl)pyridin-2-yl]-2-fluorocyclopropanecarboxamide]",81 nM
8,"COC(=O)N1CC(=O)c2c([nH]c(-c3ccnc(NC(=O)[C@@H]4C[C@@H]4F)c3)c2Nc2ccccc2)C1 (relative stereo) [Example 139, Methyl 3-anilino-2-[2-({[rel-(1S,2S)-2-fluorocyclopropyl]carbonyl}amino)pyridin-4-yl]-4-oxo-1,4,5,7-tetrahydro-6H-pyrrolo[2,3-c]pyridine-6-carboxylate]",7 nM
9,"O=C1CNCc2[nH]c(-c3ccnc(NC(=O)[C@@H]4C[C@H]4F)c3)c(Nc3ccccc3)c21 (relative stereo) [Example 142, rel-(1S,2R)—N-[4-(3-Anilino-4-oxo-4,5,6,7-tetrahydro-1H-pyrrolo[2,3-c]pyridin-2-yl)pyridin-2-yl]-2-fluorocyclopropanecarboxamide]",76 nM
10,"O=C1CN(Cc2ccccc2)Cc2[nH]c(-c3ccncc3)c(Nc3ccccc3)c21 [Example 1, 6-Benzyl-3-(phenylamino)-2-(pyridin-4-yl)-1,5,6,7-tetrahydro-4H-pyrrolo[2,3-c]pyridin-4-one]",67 nM
11,"O=C1CNCc2[nH]c(-c3ccncc3Cl)c(Nc3ccccc3)c21 [Example 2, 2-(3-Chloropyridin-4-yl)-3-(phenylamino)-1,5,6,7-tetrahydro-4H-pyrrolo[2,3-c]pyridin-4-one]",236 nM

# The next lines start with the values.
row,IC50,SMILES
1,79 nM,"NC(CN1CC(=NO)c2c([nH]c(-c3ccncc3)c2Nc2ccccc2)C1)=NO (mixture of isomers) [Example 218, (1E/Z)—N′-Hydroxy-2-[(4E/Z)-4-(hydroxyimino)-3-(phenylamino)-2-(pyridin-4-yl)-1,4,5,7-tetrahydro-6H-pyrrolo[2,3-c]pyridin-6-yl]ethanimidamide]"
2,4 nM,"CS(=O)(=O)N1CC(=O)c2c([nH]c(-c3ccnc(NC(=O)C4CC4(F)F)c3)c2Nc2ccccc2)C1 (racemic) [Example 149, (1RS)—N-{4-[3-Anilino-6-(methylsulfonyl)-4-oxo-4,5,6,7-tetrahydro-1H-pyrrolo[2,3-c]pyridin-2-yl]pyridin-2-yl}-2,2-difluorocyclopropanecarboxamide]"
3,8 nM,"CC(C)OC(=O)N1CC(=O)c2c([nH]c(-c3ccnc(NC(=O)C4CC4(F)F)c3)c2Nc2ccccc2)C1 (racemic) [Example 158, Isopropyl 3-anilino-2-[2-({[(1RS)-2,2-difluorocyclopropyl]carbonyl}amino)pyridin-4-yl]-4-oxo-1,4,5,7-tetrahydro-6H-pyrrolo[2,3-c]pyridine-6-carboxylate]"
4,6 nM,"O=C1CN(S(=O)(=O)c2cnc[nH]2)Cc2[nH]c(-c3ccnc(NC(=O)C4CC4(F)F)c3)c(Nc3ccccc3)c21 (racemic) [Example 164, (1RS)—N-{4-[3-Anilino-6-(1H-imidazol-5-ylsulfonyl)-4-oxo-4,5,6,7-tetrahydro-1H-pyrrolo[2,3-c]pyridin-2-yl]pyridin-2-yl}-2,2-difluorocyclopropanecarboxamide]"
5,5 nM,"CC(=O)Nc1cc(-c2[nH]c3c(c2Nc2ccccc2)C(=O)CN(C(=O)C(C)C(F)(F)F)C3)ccn1 (racemic) [Example 178, N-(4-{3-Anilino-4-oxo-6-[(2RS)-3,3,3-trifluoro-2-methylpropanoyl]-4,5,6,7-tetrahydro-1H-pyrrolo[2,3-c]pyridin-2-yl}pyridin-2-yl)acetamide]"
6,4 nM,"CS(=O)(=O)N1CC(=O)c2c([nH]c(-c3ccnc(NC(=O)[C@H]4C[C@H]4F)c3)c2Nc2ccccc2)C1 (relative stereo) [Example 148, rel-(1R,2R)—N-{4-[3-Anilino-6-(methylsulfonyl)-4-oxo-4,5,6,7-tetrahydro-1H-pyrrolo[2,3-c]pyridin-2-yl]pyridin-2-yl}-2-fluorocyclopropanecarboxamide]"
7,7 nM,"CC(C)OC(=O)N1CC(=O)c2c([nH]c(-c3ccnc(NC(=O)[C@H]4C[C@H]4F)c3)c2Nc2ccccc2)C1 (relative stereo) [Example 157, Isopropyl 3-anilino-2-[2-({[rel-(1R,2R)-2-fluorocyclopropyl]carbonyl}amino)pyridin-4-yl]-4-oxo-1,4,5,7-tetrahydro-6H-pyrrolo[2,3-c]pyridine-6-carboxylate]"
8,6 nM,"O=C1CN(S(=O)(=O)c2cnc[nH]2)Cc2[nH]c(-c3ccnc(NC(=O)[C@H]4C[C@H]4F)c3)c(Nc3ccccc3)c21 (relative stereo) [Example 163, rel-(1R,2R)—N-{4-[3-Anilino-6-(1H-imidazol-5-ylsulfonyl)-4-oxo-4,5,6,7-tetrahydro-1H-pyrrolo[2,3-c]pyridin-2-yl]pyridin-2-yl}-2-fluorocyclopropanecarboxamide]"
